Measured values taken from PubChem BioAssay AID844 (SRMLSC, 2007).
Activity calls are given as the source filed them. How the calls were made is not given here.

Columns and labels:
[1] = doxorubicin EC50 increase in MRP-1 cells, dose response, cell-based, doxorubicin EC50 shift (AID 844); details: MRP1 cells, doxorubicin viability shift, 10 uM compound; at 100 µM (top of the series);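 on viability: plate controls were cells with vehicle for no effect and cells with cytotoxic drug for full effect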
[2] = tested on: MRP1 cells, doxorubicin viability shift, 10 uM compound; assay: as above; details: for EC50: measured here: doxorubicin EC50 with compound

NC1C2CN(c3nc4c(cc3F)c(=O)c(C(=O)O)cn4-c3ccc(F)cc3F)CC12 (stereo not given)
viability [1]: 17.6% (inactive)
EC50 [2]: < 195 nM

N=C(N)SCc1ccc(Cl)cc1Cl
viability [1]: 10.9% (inactive)
EC50 [2]: < 195 nM

COc1cc(C2Nc3cccc4cccc(c34)N2)cc(OC)c1O
viability [1]: 1.31% (inactive)
EC50 [2]: < 195 nM

COc1cccc(/C=N/NC(=O)c2cc(-c3cccn3C)n[nH]2)c1O
viability [1]: 9.49% (inactive)
EC50 [2]: < 195 nM

NS(=O)(=O)c1ccc(N=Nc2c(-c3ccccc3)[nH]n(-c3nc(-c4ccccc4)cs3)c2=O)cc1
viability [1]: 8.13% (inactive)
EC50 [2]: < 195 nM

Oc1ccc(-c2nc(-c3ccc(O)c(O)c3)cs2)cc1
viability [1]: 1.94% (inactive)
EC50 [2]: < 195 nM

Cc1cc(N/N=C/c2ccc(O)cc2O)nc(-n2nc(C)cc2C)n1
viability [1]: 15.5% (inactive)
EC50 [2]: < 195 nM

CCOC(=O)c1c(CSC(=N)N)n(-c2ccc(C)cc2)c2cc(Br)c(OC(C)=O)cc12
viability [1]: 0.37% (inactive)
EC50 [2]: < 195 nM

Cc1cc(C)nc(NS(=O)(=O)c2ccc(NC(=O)c3ccc4c(c3)OCO4)cc2)n1
fold increase in Dox EC50 [2]: 0.94 (inactive)
EC50 [2]: 5050 nM

Cc1cccc2cc(CN(Cc3ccco3)S(=O)(=O)c3ccc4c(c3)OCCO4)c(=O)[nH]c12
fold increase in Dox EC50 [2]: 0.96 (inactive)
EC50 [2]: 5190 nM
